Test results reported in article PMC11243149, “Assessing the Effects of Thiazole-Carboxamide Derivatives on the Biophysical Properties of AMPA Receptor Complexes as a Potential Neuroprotective Agent” (Molecules, 2024).
Read-outs that look alike come from different tables or passages of the source.

How the values were obtained:
Assay type in all cases: cell-based
[1] = target: T1, GluA1 (Homo sapiens, UniProt P42261); assay: Whole-cell patch-clamp recordings of homomeric GluA1 AMPAR in transfected HEK293T cells; settings: for Amplitude (glutamate plus TC compound) / Amplitude, applying glutamate alone after TC compound / IC50 / A/AI / t deact / t des: GluA1; for Amplitude (glutamate plus TC compound): 10 mM glutamate + TC compound (12 µM optimal concentration), HEK293T, -60 mV, pH 7.4, 22 °C, mean ± SEM; for Amplitude (glutamate plus TC compound) / Amplitude, applying glutamate alone after TC compound: n = 10; for Amplitude, applying glutamate alone after TC compound: 10 mM glutamate alone after 20 s wash following the TC compound; for A/AI: ratio of current with glutamate alone (A) to inhibited current after TC compound (AI); for t deact: weighted tau of deactivation, 10 mM glutamate for 1 ms, glutamate alone 2.1±0.1; for t deact / t des: with TC compound; for t des: weighted tau of desensitization, 10 mM glutamate 500 ms, glutamate alone 2.5±0.1; for influence on τw des: GluA1 subunit
T1 construct: expressed in transfected cells; host or cells: HEK293T
Experimental: (§1) The effect of five TC compounds on whole-cell currents of four AMPAR subunits (GluA1, GluA1/2, GluA2, and GluA2/3) was investigated using transfected HEK293T cells. Each compound was applied separately to each subunit, with experiments conducted on 8–10 cells per condition to ensure reproducibility. […] At a glutamate concentration of 10 mM and a 500 ms protocol, approximately 95% of AMPAR channels were open. The A/AI ratio was calculated to compare the results, where A represents normalized current readings and AI indicates the inhibited current following TC compound exposure. […] Following closely, TC-1 inhibited the tested subunits by 5-fold.
(§2) The IC50 values were examined using GraphPad Prism software 9.5.0.730 (x64) (Table S6), which confirmed these findings. The IC50 values of TC substances were calculated by standardizing the peak current amplitudes using data obtained from 8–10 cells. Following a 500 ms exposure to the compounds, the cells were rinsed with glutamate for 20 s. Next, a solution containing just glutamate at a concentration of 10 mM was administered, and the resulting immediate induced electrical current was measured and documented (Figure 3).
(§3) In addition, an evaluation was conducted on the deactivation rates (τw deact) of all the examined chemicals to investigate their impact on the kinetics of deactivation. The chemicals were assessed for their effect on the deactivation kinetics of AMPAR subunits by briefly administering 10 mM glutamate for 1 ms to begin currents. This experimental setup allowed for the observation of τw deact under controlled conditions. […] TC-5 induced an approximately 2-fold increase in τw deact across all four tested subunits. […] These findings highlight the differential impact of TC compounds on deactivation kinetics across AMPAR subunits, shedding light on their potential neuroprotective mechanisms.
(§4) The flip isoform was uniformly employed across all AMPAR subunits in this study. These subunits were subcloned into the pRK vector and expressed in Human Embryonic kidney cells sourced (Sigma, München, Germany). HEK293T cells were grown in Dulbecco Modified Eagle Medium (DMEM) (Sigma, München, Germany) containing 10% FBS (fetal bovine serum), 0.1 mg/mL streptomycin, and 1 mM sodium pyruvate (Biological Industries; Beit-Haemek, Israel). HEK293T cells were incubated at 37 °C and 5% CO2 was supplemented to the medium. It was subcultured twice a week until cells reached pass #20. The transfection reagent used was either jetPRIME (Polyplus: New York, NY, USA) or Lipofectamine 2000 (Invitrogen; San Diego, CA, USA). Cells were kept for 36 h. after transfection in 12-well plates. Then, they were replated on coverslips coated with Laminin (1 mg/mL; Sigma, Germany) for electrophysiology recordings. Cells were then seeded in Petri dishes in DMEM supplemented with 10% fetal calf serum and antibiotics and maintained in a humidified incubator at 37 °C and 5% CO2. Highly fluorescent cells were identified and selected for recording post-transfection.
(§5) HEK293T cells were recorded for 36–48 h, at a temperature of 22 °C, with a membrane potential of −60 mV. HEK293T cells were recorded 36–48 h after transfection using IPA (Integrated Patch Amplifier) via the […], at a temperature of 22 °C, with a membrane potential of −60 mV. SutterPatch Software v. 1.1.1 (Sutter Instruments, Novato, CA, USA) was used to digitize membrane currents for a short period. The sampling frequency was set to 10 kHz, and the low-pass filter was set to 2 kHz. Borosilicate glass was used to fabricate the patch electrodes with a resistance of 2–4 MΩ. The extracellular solution contained the following (values are in mM): 150 NaCl, 2.8 KCl, 0.5 MgCl2, 2 CaCl2, and 10 HEPES, adjusted to pH 7.4 with NaOH. The pipette solution contained the following (values are in mM): 110 CsF, 30 CsCl, 4 NaCl, 0.5 CaCl2, 10 […], and 10 HEPES, adjusted to pH 7.2 with CsOH. […]

[2] = target: T2, GluA2 (Homo sapiens, UniProt P42262); assay: Whole-cell patch-clamp recordings of homomeric GluA2 AMPAR in transfected HEK293T cells; settings: for Amplitude (glutamate plus TC compound): 10 mM glutamate + TC compound (12 µM optimal concentration), HEK293T, -60 mV, pH 7.4, 22 °C, mean ± SEM; for Amplitude (glutamate plus TC compound) / Amplitude, applying glutamate alone after TC compound: n = 10; for Amplitude, applying glutamate alone after TC compound: 10 mM glutamate alone after 20 s wash following the TC compound; for A/AI: ratio of current with glutamate alone (A) to inhibited current after TC compound (AI); for t deact: weighted tau of deactivation, 10 mM glutamate for 1 ms, glutamate alone 2.3±0.1; for t deact / t des: with TC compound; for t des: weighted tau of desensitization, 10 mM glutamate 500 ms, glutamate alone 2.6±0.1
T2 construct: expressed in transfected cells; host or cells: HEK293T
Experimental: as §1, §2, §3, §4, §5

[3] = target: T3, GluA2/3 (Homo sapiens, UniProt P42262+P42263); assay: Whole-cell patch-clamp recordings of heteromeric GluA2/3 AMPAR in transfected HEK293T cells; settings: for Amplitude (glutamate plus TC compound): 10 mM glutamate + TC compound (12 µM optimal concentration), HEK293T, -60 mV, pH 7.4, 22 °C, mean ± SEM; for Amplitude (glutamate plus TC compound) / Amplitude, applying glutamate alone after TC compound: n = 10; for Amplitude, applying glutamate alone after TC compound: 10 mM glutamate alone after 20 s wash following the TC compound; for A/AI: ratio of current with glutamate alone (A) to inhibited current after TC compound (AI); for t deact: weighted tau of deactivation, 10 mM glutamate for 1 ms, glutamate alone 2.6±0.3; for t deact / t des: with TC compound; for t des: weighted tau of desensitization, 10 mM glutamate 500 ms, glutamate alone 2.7±0.2
T3 construct: expressed in transfected cells; host or cells: HEK293T
Experimental: as §1, §2, §3, §4, §5

[4] = tested on: AMPAR subunits (GluA1, GluA1/2, GluA2, and GluA2/3); assay: Whole-cell patch-clamp recordings, statements over all tested AMPAR subunits; settings: for reduction in τw des: across all examined subunits; for increase in τw deact / decrease in AMPAR subunit activity (inhibition of the whole-cell current): all tested subunits; for increase in τw deact: 10 mM glutamate for 1 ms; for decrease in AMPAR subunit activity (inhibition of the whole-cell current): 10 mM glutamate, 500 ms protocol
Experimental: as §1
A thorough investigation was performed to assess the neuroprotective potential of the TC compounds. The influence of the five TC compounds on the desensitization traces is seen in Figure 4, namely in panels b, d, f, and h. TC-2 caused a substantial reduction in τw des in all receptor subunits, with decreases ranging from 2 to 3 times.
as §3, §4
as §5, with “CsOH. Using double barrel glass (theta tube), glutamate and the solutions of choice were rapidly administered, and the theta tube was mounted on a high-speed piezo solution switcher (Automate Scientific, Berkeley, CA, USA).” for “CsOH.”

[5] = Table S6, peak current amplitudes, 8-10 cells, GraphPad Prism fit, read-out: IC50
[6] = Table S6, read-out: Log IC50 (converted)

T1 sequence (P42261 19-906 isoform P42261-2 limits assumed, species assumed): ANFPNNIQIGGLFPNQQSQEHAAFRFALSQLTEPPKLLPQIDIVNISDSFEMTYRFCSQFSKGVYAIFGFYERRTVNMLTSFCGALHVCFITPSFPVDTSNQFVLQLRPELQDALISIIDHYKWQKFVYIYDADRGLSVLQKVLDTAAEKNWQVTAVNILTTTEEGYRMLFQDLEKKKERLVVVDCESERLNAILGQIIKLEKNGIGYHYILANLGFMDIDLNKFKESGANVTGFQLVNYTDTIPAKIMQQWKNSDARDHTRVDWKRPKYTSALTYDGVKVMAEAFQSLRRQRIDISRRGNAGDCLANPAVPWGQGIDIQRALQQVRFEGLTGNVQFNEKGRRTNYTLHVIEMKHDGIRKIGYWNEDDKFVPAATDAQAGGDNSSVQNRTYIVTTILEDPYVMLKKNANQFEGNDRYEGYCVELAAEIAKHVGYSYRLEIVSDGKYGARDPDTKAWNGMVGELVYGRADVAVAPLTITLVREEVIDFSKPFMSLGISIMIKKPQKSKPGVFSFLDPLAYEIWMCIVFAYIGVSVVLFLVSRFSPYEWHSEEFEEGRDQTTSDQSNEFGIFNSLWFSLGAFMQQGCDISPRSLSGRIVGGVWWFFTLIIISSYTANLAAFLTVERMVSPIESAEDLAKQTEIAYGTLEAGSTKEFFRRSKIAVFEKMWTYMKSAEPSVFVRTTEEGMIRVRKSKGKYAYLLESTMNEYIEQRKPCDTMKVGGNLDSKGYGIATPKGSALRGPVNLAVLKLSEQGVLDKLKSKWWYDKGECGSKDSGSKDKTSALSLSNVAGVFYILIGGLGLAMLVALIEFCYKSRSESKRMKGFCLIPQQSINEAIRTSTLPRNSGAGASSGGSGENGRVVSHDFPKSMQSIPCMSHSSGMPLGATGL
T2 sequence (P42262 25-883 isoform P42262-2 limits assumed, species assumed): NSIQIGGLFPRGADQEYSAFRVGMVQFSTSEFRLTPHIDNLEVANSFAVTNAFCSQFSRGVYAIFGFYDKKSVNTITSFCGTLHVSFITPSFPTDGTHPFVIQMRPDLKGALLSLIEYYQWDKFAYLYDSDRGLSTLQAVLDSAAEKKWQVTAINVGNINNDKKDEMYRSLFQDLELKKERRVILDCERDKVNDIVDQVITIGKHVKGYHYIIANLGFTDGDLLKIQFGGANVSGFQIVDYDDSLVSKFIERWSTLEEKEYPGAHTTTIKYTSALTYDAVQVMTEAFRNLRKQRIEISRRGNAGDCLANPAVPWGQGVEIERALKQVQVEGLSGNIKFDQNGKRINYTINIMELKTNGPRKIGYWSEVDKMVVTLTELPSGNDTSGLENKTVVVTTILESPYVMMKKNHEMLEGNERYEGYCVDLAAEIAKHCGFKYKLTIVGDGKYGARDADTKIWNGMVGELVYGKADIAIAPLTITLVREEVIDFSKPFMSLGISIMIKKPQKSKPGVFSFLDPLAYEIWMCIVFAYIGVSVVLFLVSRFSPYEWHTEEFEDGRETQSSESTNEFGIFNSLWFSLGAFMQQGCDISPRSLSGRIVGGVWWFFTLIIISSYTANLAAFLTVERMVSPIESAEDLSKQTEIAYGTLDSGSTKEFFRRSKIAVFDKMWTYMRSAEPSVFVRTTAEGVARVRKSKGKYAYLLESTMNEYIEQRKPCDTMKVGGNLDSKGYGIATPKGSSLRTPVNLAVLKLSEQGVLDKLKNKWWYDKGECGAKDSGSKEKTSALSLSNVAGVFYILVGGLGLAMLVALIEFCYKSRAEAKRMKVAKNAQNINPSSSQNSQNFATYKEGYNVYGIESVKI
T3 sequence (P42262 25-883 isoform P42262-2 limits assumed): as the sequence (P42262 25-883 isoform P42262-2 limits assumed, species assumed) above
T3 sequence (P42263 29-894 isoform P42263-2 limits assumed): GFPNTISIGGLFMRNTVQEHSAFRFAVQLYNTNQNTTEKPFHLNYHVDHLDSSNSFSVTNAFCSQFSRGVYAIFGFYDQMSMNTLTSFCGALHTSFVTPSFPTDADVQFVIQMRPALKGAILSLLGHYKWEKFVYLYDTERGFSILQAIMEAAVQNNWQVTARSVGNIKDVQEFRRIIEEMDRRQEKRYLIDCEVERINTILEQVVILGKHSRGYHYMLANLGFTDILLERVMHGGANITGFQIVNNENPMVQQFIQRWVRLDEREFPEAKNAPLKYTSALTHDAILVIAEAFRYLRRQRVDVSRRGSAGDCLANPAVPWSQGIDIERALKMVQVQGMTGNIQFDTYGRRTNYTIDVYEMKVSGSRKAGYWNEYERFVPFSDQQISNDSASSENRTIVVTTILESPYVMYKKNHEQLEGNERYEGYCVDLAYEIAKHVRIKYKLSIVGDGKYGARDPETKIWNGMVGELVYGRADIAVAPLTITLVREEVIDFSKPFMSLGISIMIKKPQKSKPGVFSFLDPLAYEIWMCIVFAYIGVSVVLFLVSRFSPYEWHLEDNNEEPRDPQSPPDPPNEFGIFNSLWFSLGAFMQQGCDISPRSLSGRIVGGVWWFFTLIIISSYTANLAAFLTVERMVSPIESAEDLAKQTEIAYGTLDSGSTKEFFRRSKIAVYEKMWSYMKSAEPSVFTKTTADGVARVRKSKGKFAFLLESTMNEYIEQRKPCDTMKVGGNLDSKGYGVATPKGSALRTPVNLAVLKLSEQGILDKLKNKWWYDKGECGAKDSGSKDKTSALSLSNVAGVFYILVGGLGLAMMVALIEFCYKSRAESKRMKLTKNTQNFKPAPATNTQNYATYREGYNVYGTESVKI

COc1ccc(-c2nc(C(=O)Nc3ccc(OC)c(OC)c3)cs2)cc1 [TC-1]
Amplitude (glutamate plus TC compound) [1]: 177±20 pA
Amplitude, applying glutamate alone after TC compound [1]: 848±82 pA
IC50 [1, 5]: 3.42 µM
IC50 [1, 6]: 3.39 µM
A/AI [1]: 4.91±0.1
t deact [1]: 5.3 ± 0.4 ms
t des [1]: 1.3 ± 0.1 ms
Amplitude (glutamate plus TC compound) [2]: 233±20 pA
Amplitude, applying glutamate alone after TC compound [2]: 1137±97 pA
IC50 [2, 6]: 3.31 µM
A/AI [2]: 5.03±0.04
IC50 ([2]; read-out: IC50): 3.3 µM
t deact [2]: 5.9 ± 0.2 ms
t des [2]: 1.1 ± 0.1 ms
Amplitude (glutamate plus TC compound) [3]: 102±13 pA
Amplitude, applying glutamate alone after TC compound [3]: 491±61 pA
IC50 [3, 5]: 3.38 µM
IC50 [3, 6]: 3.39 µM
A/AI [3]: 4.95±0.19
t deact [3]: 5.6 ± 0.4 ms
t des [3]: 1.2 ± 0.3 ms
reduction in τw des [4]: roughly twofold
increase in τw deact [4]: around 2 fold
decrease in AMPAR subunit activity (inhibition of the whole-cell current) [4]: 5 fold

COc1ccc(-c2nc(C(=O)Nc3ccccc3)cs2)cc1 [TC-3]
Amplitude (glutamate plus TC compound) [1]: 287±38 pA
Amplitude, applying glutamate alone after TC compound [1]: 799±95 pA
IC50 [1, 5]: 5.73 µM
IC50 [1, 6]: 5.75 µM
A/AI [1]: 2.97±0.03
t deact [1]: 3.0 ± 0.2 ms
t des [1]: 2.0 ± 0.1 ms
influence on τw des [1]: negligible
Amplitude (glutamate plus TC compound) [2]: 363±37 pA
Amplitude, applying glutamate alone after TC compound [2]: 1078±112 pA
IC50 [2, 5]: 5.5 µM
IC50 [2, 6]: 5.5 µM
A/AI [2]: 3.17±0.02
t deact [2]: 3.5 ± 0.3 ms
t des [2]: 1.7 ± 0.1 ms
Amplitude (glutamate plus TC compound) [3]: 159±25 pA
Amplitude, applying glutamate alone after TC compound [3]: 456±76 pA
IC50 [3, 5]: 5.53 µM
IC50 [3, 6]: 5.5 µM
A/AI [3]: 3.06±0.07
t deact [3]: 3.4 ± 0.4 ms
t des [3]: 1.8 ± 0.2 ms
reduction in τw des [4]: little effect
increase in τw deact [4]: weaker effects
decrease in AMPAR subunit activity (inhibition of the whole-cell current) [4]: ~3 fold

COc1ccc(-c2nc(C(=O)Nc3ccc(C(C)(C)C)cc3)cs2)cc1 [TC-4]
Amplitude (glutamate plus TC compound) [1]: 331±50 pA
Amplitude, applying glutamate alone after TC compound [1]: 816±114 pA
IC50 [1, 5]: 5.88 µM
IC50 [1, 6]: 5.89 µM
A/AI [1]: 2.53±0.02
t deact [1]: 2.9 ± 0.1 ms
t des [1]: 2.1 ± 0.1 ms
influence on τw des [1]: negligible
Amplitude (glutamate plus TC compound) [2]: 393±43 pA
Amplitude, applying glutamate alone after TC compound [2]: 1110±101 pA
IC50 [2, 5]: 5.6 µM
IC50 [2, 6]: 5.62 µM
A/AI [2]: 2.91±0.07
t deact [2]: 3.4 ± 0.2 ms
t des [2]: 1.8 ± 0.1 ms
Amplitude (glutamate plus TC compound) [3]: 183±36 pA
Amplitude, applying glutamate alone after TC compound [3]: 460±95 pA
IC50 [3, 5]: 5.64 µM
IC50 [3, 6]: 5.62 µM
A/AI [3]: 2.59±0.05
t deact [3]: 3.3 ± 0.3 ms
t des [3]: 1.9 ± 0.2 ms
reduction in τw des [4]: little effect
increase in τw deact [4]: weaker effects
decrease in AMPAR subunit activity (inhibition of the whole-cell current) [4]: ~2.5 fold
